Measured values taken from ChEMBL document CHEMBL1125969, “Design, synthesis and cytotoxic evaluation of keto-C-glycoside fatty acid conjugates” (Bioorg Med Chem Lett, 1991).

system: LFCl2A; test: In vitro cytotoxicity against LFCl2A (rat hepatocarcinoma) cells.; assay type: functional, cell-based; conditions: not given

Row | SMILES | IC50 [nM]
1 | O=c1[nH]cc(F)c(=O)[nH]1 [FLUOROURACIL] | 28500

same assay, conditions: read-out: IC50

Row | SMILES | IC50 [nM]
2 | CCCC(=O)OC[C@H]1O[C@H](C2CCCC=C2C)C=CC1=O (some centres undefined) | 350
3 | CC/C=C\C/C=C\C/C=C\C/C=C\C/C=C\C/C=C\CCC(=O)OC[C@H]1O[C@H](CC2=CCCCC2)C=CC1=O | 50
4 | CC1=CCCCC1[C@H]1O[C@H](CO)C=CC1=O (some centres undefined) | 3500
5 | CCCCCCCC/C=C\CCCCCCCC(=O)OC[C@H]1O[C@H](CC2=CCCCC2)C=CC1=O | 80
6 | O=C1C=C[C@@H](CO)O[C@@H]1CC1=CCCCC1 | 9500
7 | CCCCC/C=C\C/C=C\C/C=C\C/C=C\CCCC(=O)OC[C@@H]1C=CC(=O)[C@@H](C2CCCC=C2C)O1 (some centres undefined) | 5000
8 | CCCCC/C=C\C/C=C\C/C=C\C/C=C\CCCC(=O)OC[C@H]1O[C@H](CC2=CCCCC2)C=CC1=O | 7000
9 | CCCCCCCC/C=C\CCCCCCCC(=O)OC[C@H]1O[C@H](C2CCCC=C2C)C=CC1=O (some centres undefined) | 50
10 | CC(=O)OC[C@H]1O[C@H](CC2=CCCCC2)C=CC1=O | 150
11 | CC/C=C\C/C=C\C/C=C\C/C=C\C/C=C\C/C=C\CCC(=O)OC[C@H]1O[C@H](C2CCCC=C2C)C=CC1=O (some centres undefined) | 20
12 | O=C1C=C[C@@H](CC2=CCCCC2)O[C@@H]1CO | 3000
13 | CCCCC/C=C\C/C=C\C/C=C\C/C=C\CCCC(=O)OC[C@H]1O[C@H](C2CCCC=C2C)C=CC1=O (some centres undefined) | 1
14 | CC/C=C\C/C=C\C/C=C\C/C=C\C/C=C\C/C=C\CCC(=O)OC[C@@H]1C=CC(=O)[C@@H](CC2=CCCCC2)O1 | 30000
15 | CCCCCCCC/C=C\CCCCCCCC(=O)OC[C@@H]1C=CC(=O)[C@@H](C2CCCC=C2C)O1 (some centres undefined) | 35000
16 | CCCC(=O)OC[C@H]1O[C@H](CC2=CCCCC2)C=CC1=O | 90
17 | CCCCC/C=C\C/C=C\C/C=C\C/C=C\CCCC(=O)OC[C@@H]1C=CC(=O)[C@@H](CC2=CCCCC2)O1 | 35000
18 | CC(=O)OC[C@H]1O[C@H](C2CCCC=C2C)C=CC1=O (some centres undefined) | 700
19 | CC/C=C\C/C=C\C/C=C\C/C=C\C/C=C\C/C=C\CCC(=O)OC[C@@H]1C=CC(=O)[C@@H](C2CCCC=C2C)O1 (some centres undefined) | 65000
